{
  "source": "patent US7435747B2",
  "about": "“Guanidine and amidine derivatives as factor Xa inhibitors” (Sanofi-Aventis Deutschland GmbH, priority 2000, dated 2008)",
  "molecular_target": "T1, human factor Xa (Homo sapiens, UniProt P00742)",
  "T1 construct": "25 μl human factor Xa (Enzyme Research Laboratories, Inc; South Bend, Ind.); purchased Enzyme Research Laboratories, Inc; South Bend, Ind",
  "T1 sequence (P00742 235-488 limits assumed)": "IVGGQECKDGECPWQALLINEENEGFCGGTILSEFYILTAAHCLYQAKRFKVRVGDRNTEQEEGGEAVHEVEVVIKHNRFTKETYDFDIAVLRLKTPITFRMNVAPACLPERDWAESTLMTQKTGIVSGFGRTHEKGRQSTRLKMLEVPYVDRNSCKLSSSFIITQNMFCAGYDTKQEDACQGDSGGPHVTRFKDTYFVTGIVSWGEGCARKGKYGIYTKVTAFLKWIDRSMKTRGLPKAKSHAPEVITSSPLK",
  "T1 sequence (P00742 41-179 partner limits assumed)": "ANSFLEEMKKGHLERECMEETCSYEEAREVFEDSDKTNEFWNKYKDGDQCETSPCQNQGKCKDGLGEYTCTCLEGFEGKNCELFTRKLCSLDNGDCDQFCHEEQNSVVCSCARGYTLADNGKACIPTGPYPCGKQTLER",
  "test": "Factor Xa chromogenic assay (substrate S-2765)",
  "type": "biochemical",
  "conditions": "read-out: Ki(FXa), inhibition constant for inhibition of factor Xa",
  "experimental": "Purified enzymes are used in chromogenic assays.\nThe IC50 was determined by combining in appropriate wells of a Costar half-area microtiter plate 25 μl human factor Xa (Enzyme Research Laboratories, Inc.; South Bend, Ind.) in TBS-PEG; 40 μl 10% (v/v) DMSO in TBS-PEG (uninhibited control) or various concentrations of the compound to be tested diluted in 10% (v/v) DMSO in TBS-PEG; and substrate S-2765 (N(α)-benzyloxycarbonyl-D-Arg-Gly-L-Arg-p-nitroanilide; Kabi Pharmacia, Inc.; Franklin, Ohio) in TBS-PEG.\nThe assay was performed by pre-incubating the compound of formula I plus enzyme for 10 min. Then the assay was initiated by adding substrate to obtain a final volume of 100 μl. The initial velocity of chromogenic substrate hydrolysis was measured by the change in absorbance at 405 nm using a Bio-tek Instruments kinetic plate reader (Ceres UV900HDi) at 25° C. during the linear portion of the time course (usually 1.5 min after addition of substrate). The enzyme concentration was 0.5 nM and substrate concentration was 140 μM.",
  "key": {"[1]": {"conditions": "Ki calculated from IC50 corrected for substrate competition, 25° C., 0.5 nM enzyme, 140 μM substrate S-2765"}},
  "note": "Where two headings read alike, the source gives them in different places.",
  "data": [
    {"smiles": "Cc1c(O)cc(C(=O)NCC2CCN(C(=N)N)CC2)cc1OCCc1ccc(Cl)cc1Cl", "note": "[Example 3, N-(1-Carbamimidoyl-piperidin-4-ylmethyl)-3-[2-(2,4-dichloro-phenyl)-ethoxy]-5-hydroxy-4-methyl-benzamide]", "values": [
      {"measurement": "Ki", "result": 58.5, "unit": "nM"}
    ]},
    {"smiles": "N=C(N)N1CCC(CNC(=O)c2cc(O)c(Br)c(OCCc3ccc(Cl)cc3Cl)c2)CC1", "note": "[Example 2, 4-Bromo-N-(1-carbamimidoyl-piperidin-4-ylmethyl)-3-[2-(2,4-dichloro-phenyl)-ethoxy]-5-hydroxy-benzamide]", "values": [
      {"measurement": "Ki", "result": 13.7, "unit": "nM"}
    ]},
    {"smiles": "COC(=O)[C@H](CC1CCN(C(=N)N)CC1)NC(=O)c1cc(O)c(C)c(OCCCc2ccc(Cl)cc2Cl)c1", "note": "[Example 6]", "values": [
      {"measurement": "Ki", "result": 2280, "unit": "nM"}
    ]},
    {"smiles": "Cc1ccc(C(=O)NCC2CCN(C(=N)N)CC2)cc1OCCc1ccc(Cl)cc1Cl", "note": "[Example 13, N-(1-Carbamimidoyl-piperidin-4-ylmethyl)-3-[2-(2,4-dichloro-phenyl)-ethoxy]-4-methyl-benzamide; compound with trifluoro-acetic acid]", "values": [
      {"measurement": "Ki", "setting": "[1]", "result": 173, "unit": "nM"}
    ]},
    {"smiles": "N=C(N)N1CCC(CNC(=O)c2cc(O)cc(OCCc3ccc(Cl)cc3Cl)c2)CC1", "note": "[Example 4]", "values": [
      {"measurement": "Ki", "result": 464, "unit": "nM"}
    ]},
    {"smiles": "CC(=N)N1CCC(CNC(=O)c2ccc(C)c(OCCc3ccc(Cl)cc3Cl)c2)CC1", "note": "[Example 12, 3-[2-(2,4-Dichloro-phenyl)-ethoxy]-N-[1-(10-imino-ethyl)-piperidin-4-ylmethyl]-4-methyl-benzamide; compound with trifluoro-acetic acid]", "values": [
      {"measurement": "Ki", "setting": "[1]", "result": 140, "unit": "nM"}
    ]},
    {"smiles": "COC(=O)[C@@H](NC(=O)c1cc(O)cc(OCCc2ccc(Cl)cc2Cl)c1)C1CCN(C(=N)N)CC1", "note": "[Example 1, (S)-(1-Carbamimidoyl-piperidin-4-yl)-{3-[2-(2,4-dichloro-phenyl)-ethoxy]-5-hydroxy-benzoylamino}-acetic acid methyl ester]", "values": [
      {"measurement": "Ki", "result": 2120, "unit": "nM"}
    ]}
  ]
}
